From ChEMBL document CHEMBL3612013, “Cyclodextrin complexation highly enhances efficacy of arylsulfonylureido benzenesulfonamide carbonic anhydrase inhibitors as a topical antiglaucoma agents” (Bioorg Med Chem, 2015) come the findings set out here.

The test system of series [1] is Oryctolagus cuniculus. The series is described as follows: Antiglaucoma activity in New Zealand albino rabbit model of carbomer-induced hypertensive eye glaucoma assessed as intraocular pressure at 0.07% using compound complexed with cyclodextrin directly instilled into conjunctive pocket measured 1 hr post drug administration (reference value: 45 to 50 mmHg). It is filed as functional.

The subject of series [2] is Oryctolagus cuniculus. The series is described as follows: Toxicity in New Zealand albino rabbit model of carbomer-induced hypertensive eye glaucoma assessed as induction of eye irritation at 0.07% using compound complexed with cyclodextrin directly instilled into conjunctive pocket measured 24 hrs post drug administration. Type of series: organism-based. The note with it: in vivo, topical_or_ocular.

Series [3] in a line: Aqueous solubility in pH 7.4 PBS in presence of hydroxyethyl-beta cyclodextrin incubated for 48 hrs at 25 degC by spectrophotometry. The note with it: PBS with hydroxyethyl-beta cyclodextrin. Type of series: physicochemical.
Series [4] is described as follows: Aqueous solubility in pH 7.4 PBS in presence of hydroxypropyl-alpha cyclodextrin incubated for 48 hrs at 25 degC by spectrophotometry. Type of series: physicochemical. The note with it: PBS with hydroxypropyl-alpha cyclodextrin.
Series [5] concerns Oryctolagus cuniculus. The series is described as follows: Antiglaucoma activity in New Zealand albino rabbit model of carbomer-induced hypertensive eye glaucoma assessed as time duration showing reduction in intraocular pressure at 0.07% using compound complexed with cyclodextrin directly instilled into conjunctive pocket measured 24 hrs post drug administration. Type of series: functional.

Series [6] relates to Oryctolagus cuniculus. Description: Antiglaucoma activity in New Zealand albino rabbit model of carbomer-induced hypertensive eye glaucoma assessed as intraocular pressure at 0.07% using compound complexed with cyclodextrin directly instilled into conjunctive pocket measured 24 hrs post drug administration (reference value: 45 to 50 mmHg). Type of series: functional.
Series [7] is described as follows: Aqueous solubility in pH 7.4 PBS in presence of hydroxypropyl-gamma cyclodextrin incubated for 48 hrs at 25 degC by spectrophotometry. The note with it: PBS with hydroxypropyl-gamma cyclodextrin. Type of series: physicochemical.
The nature of series [8]: Stability of the compound. It is filed as physicochemical.
Series [9] is described as follows: Aqueous solubility in pH 7.4 PBS incubated for 48 hrs at 25 degC by spectrophotometry. It is filed as physicochemical.
Series [10] can be described thus: Aqueous solubility in pH 7.4 PBS in presence of sulfobutyl-ether-beta cyclodextrin incubated for 48 hrs at 25 degC by spectrophotometry. It is filed as physicochemical. The note with it: PBS with sulfobutyl-ether-beta cyclodextrin.
Series [11] can be described thus: Aqueous solubility in pH 7.4 PBS in presence of gamma-cyclodextrin incubated for 48 hrs at 25 degC by spectrophotometry. Type of series: physicochemical. The note with it: PBS with gamma-cyclodextrin.
Series [12] deals with Oryctolagus cuniculus. Description: Toxicity in New Zealand albino rabbit model of carbomer-induced hypertensive eye glaucoma assessed as induction of eye irritation at 2% directly instilled into conjunctive pocket measured 24 hrs post drug administration. As to conditions: in vivo, topical_or_ocular. It is filed as organism-based.
A short description of series [13]: Aqueous solubility in pH 7.4 PBS in presence of hydroxypropyl-beta cyclodextrin incubated for 48 hrs at 25 degC by spectrophotometry. As to conditions: PBS with hydroxypropyl-beta cyclodextrin. Type of series: physicochemical.
Series [14] can be described thus: Equilibrium solubility in pH 7.4 PBS in presence of hydroxypropyl-gamma cyclodextrin incubated for 48 hrs at 25 degC by spectrophotometry. Type of series: physicochemical. The note with it: PBS with hydroxypropyl-gamma cyclodextrin.
Series [15] deals with Oryctolagus cuniculus. The series is described as follows: Toxicity in New Zealand albino rabbit model of carbomer-induced hypertensive eye glaucoma assessed as induction of eye irritation at 0.37% using compound complexed with cyclodextrin directly instilled into conjunctive pocket measured 24 hrs post drug administration. Type of series: organism-based. The note with it: in vivo, topical_or_ocular.

In series [16] the test system is Oryctolagus cuniculus. The series is described as follows: Antiglaucoma activity in New Zealand albino rabbit model of carbomer-induced hypertensive eye glaucoma assessed as intraocular pressure at 0.37% using compound complexed with cyclodextrin directly instilled into conjunctive pocket measured 1 hr post drug administration (reference value: 45 to 50 mmHg). It is filed as functional.

Series [17] concerns Oryctolagus cuniculus. The series is described as follows: Antiglaucoma activity in New Zealand albino rabbit model of carbomer-induced hypertensive eye glaucoma assessed as time duration showing reduction in intraocular pressure at 0.37% using compound complexed with cyclodextrin directly instilled into conjunctive pocket measured 24 hrs post drug administration. Type of series: functional.

The test system of series [18] is Oryctolagus cuniculus. The series is described as follows: Antiglaucoma activity in New Zealand albino rabbit model of carbomer-induced hypertensive eye glaucoma assessed as intraocular pressure at 0.37% using compound complexed with cyclodextrin directly instilled into conjunctive pocket measured 24 hrs post drug administration (reference value: 45 to 50 mmHg). It is filed as functional.

Usually solubility stands for the concentration that dissolves in the medium under given conditions. Usually solubility (thermodynamic) stands for the concentration in solution at equilibrium with solid.

≈ marks a conversion by molar mass, not a printed value.

For the molecule `Cc1ccc(S(=O)(=O)NC(=O)NCCc2ccc(S(N)(=O)=O)cc2)cc1`, the Activity with Oryctolagus cuniculus [1] was 36 mmHg; with Oryctolagus cuniculus [2] it was “Toxic”; in the series with Oryctolagus cuniculus [6], 35 mmHg; in the series on Oryctolagus cuniculus [12] it was “Toxic”. The solubility at 48 h came to 203 µg/mL in series [3]; 141 µg/mL in series [4]; 278 µg/mL in series [7]; 87 µg/mL (≈ 219 µM) in series [9]; 174 µg/mL in series [10]; 232 µg/mL in [11]. In addition, the solubility at 48 h in series [13] came out at 212 µg/mL. Also, the Time in the series with Oryctolagus cuniculus [5] was 20 h. In series [8], this molecule displayed a K of 143.75 M⁻¹. The thermodynamic solubility at 48 h in series [14] was 700 µg/mL.
On to `NS(=O)(=O)c1ccc(CCNC(=O)NS(=O)(=O)c2ccc(F)cc2)cc1`, for which the Activity result with Oryctolagus cuniculus [15] is reported as “Toxic”; with Oryctolagus cuniculus [16], 36 mmHg; in the series with Oryctolagus cuniculus [18], 35 mmHg; with Oryctolagus cuniculus [12], “Toxic”. Further, the solubility at 48 h in series [3] was 2240 µg/mL; in series [4], 1580 µg/mL; in series [7], 2330 µg/mL; in series [9] it was 972 µg/mL (≈ 2420 µM); in series [10] it was 1810 µg/mL; in series [11], 2260 µg/mL. The solubility at 48 h in series [13] amounted to 2170 µg/mL. Also, in [8], the K is 76.3 M⁻¹. For the same molecule, in the series with Oryctolagus cuniculus [17], the Time was found to be 20 h. Further, in series [14], the solubility (thermodynamic) at 48 h is 3700 µg/mL.
